From article PMC11472310, “Distinctive Immune Signatures Driven by Structural Alterations in Desmuramylpeptide NOD2 Agonists” (Journal of Medicinal Chemistry, 2024)
Converted amounts (≈) assume the structure as drawn.

Columns and labels:
human PBMCs = experiment: Cytokine release from peripheral blood mononuclear cells (LEGENDplex panel); type: cell-based; conditions: 18 h
From the text: The immunomodulatory effects of the selected desmuramylpeptides were examined in human primary peripheral blood mononuclear cells (PBMCs). This diverse mixture of immune cells provided a platform to investigate the effects of these NOD2 agonists within a physiologically relevant environment, encompassing other NOD2-interacting and downstream signaling proteins. […] Given that NOD2 activation often modulates the Toll-like receptor (TLR)-induced cytokine responses, we investigated the impact of combining desmuramylpeptides with lipopolysaccharide (LPS), a well-known TLR4 agonist, on cytokine secretion.[76]−[78]
The elicited cytokine profiles thus broadly reflect the structure–activity relationships obtained in the reporter gene assays.
Peripheral blood mononuclear cells were plated at a density of 1 × 10^6 cells/mL in 48-well plates containing 500 μL of growth medium. Cells were then treated with the compounds (2 μM) or the corresponding vehicle (0.1% DMSO), both in the absence and presence of LPS (10 ng/mL). Following an 18 h incubation period at 37 °C with 5% CO2, cell-free supernatants were collected and stored at −80 °C until analysis. […] Standard curves were constructed using recombinant cytokines provided in the kit. Data analysis was performed using Biolegend software Qognit and Prism (GraphPad, San Diego, CA, USA) software. The experiments were independently replicated four times. Statistical significance was determined using two-way analysis of variance (ANOVA) followed by Tukey’s multiple comparisons test.

[1] = test system: human blood monocyte subsets; experiment: Monocyte conversion assay in PBMCs (CD14/CD16 flow cytometry); type: cell-based; conditions: 10 μM, 18 h, NT 19.5%
From the text: Engagement of NOD2 has been reported to increase the levels of an anti-inflammatory monocyte subset, denoted as patrolling monocytes (CD14^–, CD16^+2), thus exerting a counterintuitive role in inflammatory processes, while concomitantly increasing the levels of total blood monocytes (released from bone marrow).[18] […] This process involves a transition from the inflammatory monocytes, typified by CD14^+CD16^–, through an intermediate subset of CD14^+CD16^+ monocytes. […] To recapitulate this phenomenon, we modified the reported procedure and employed PBMCs in lieu of isolated monocytes. Identification of human blood monocyte subsets was achieved through flow cytometry, utilizing the expression of CD14 and CD16 markers as distinguishing criteria. […] Similar to what has been reported (e.g., inactivity of murabutide),[18] also in our case not all NOD2 agonists were equally endowed with the ability to generate patrolling monocytes.
The monocyte conversion assay was conducted following previously established methods, with some adjustments.[18] Peripheral blood mononuclear cells were plated at a density of 3 × 10^6 cells/mL in 24-well plates containing 700 μL of growth medium. Cells were then treated with MDP and desmuramylpeptides (10 μM) or the corresponding vehicle (0.1% DMSO). Following an incubation period at 37 °C with 5% CO2, cells were transferred to 1.5 mL tube using phosphate-buffered saline (PBS) and scraper. The cells were blocked with human TruStain Fcx (BioLegend) and stained using antihuman CD16 antibodies/Alexa Fluor 488 (BioLegend); antihuman CD14 antibodies/PE-Cy7 (BioLegend); antihuman HLA-DR antibodies/APC-Fire750 (BioLegend) and blocked with TrueStain Monocyte Blocker. A viability dye Helix NP Blue (BioLegend) was added to the previous panel to discriminate live cells. PBMC were analyzed using an Attune NxT flow cytometer (Thermo Fisher Scientific, Waltham, MA, USA) and the FlowJo software (Tree Star, Inc., Ashland, OR, USA). Initially, lymphocytes (CD14^–, CD16^–) and NK (CD16^–, HLA-DR^–) were eliminated, after which classical, intermediate and nonclassical monocytes were specifically identified by selective gating strategy as follows: CD14^+ CD16^– (classical), CD14^+ CD16^+ (intermediate) and CD14^– CD16^+ (nonclassical). Each experiment was conducted in duplicate and repeated in three independent biological replicates.

[2] = Kinetic solubility (method of Hoelke et al.); type: physicochemical
From the text: Park et al. have shown that the degree of saturation of fatty acids exerts a profound impact on permeability of fatty acylated peptides—a higher degree of unsaturation results in higher permeability.[43] PUFA can also induce significant biophysical perturbations upon incorporation into membrane phospholipids.[67],[68] […] Given that the hydrophobicity of fatty acyl residues in general reduces as the number of unsaturated sites increases,[69],[70] we decided to ascertain how such structural modifications translate to the kinetic solubility of the molecule as a whole. […] The acylation with PUFA thus provides an elegant, albeit counterintuitive, approach, by which permeability of the molecule as a whole as well as its capacity for liposomal encapsulation can be enhanced without completely abolishing its aqueous solubility.

BMDC/T-cell cocultures = experiment: T cell cytokine release in BMDC/T-cell cocultures; type: cell-based, C57BL/6 mouse; conditions: 10 μM; for levels of IL-6 and TNF-α secreted by CD4+ T cells: 72 h coculture
Protocol: For this study, we narrowed down the selection of suitable desmuramylpeptides even further. In order to assess the adjuvant potential of selected desmuramylpeptides with regard to their effect on DC-mediated activation of CD4^+ and CD8^+ T cells, we conducted an ex vivo antigen-presentation assay utilizing C57BL/6 mouse bone marrow-derived DCs (BMDCs). Upon stimulation with desmuramylpeptides at 10 μM, in conjunction with ovalbumin soluble protein (50 μg/mL), BMDCs were cocultured with carboxyfluorescein succinimidyl ester (CFSE)-labeled naïve ovalbumin-specific CD4^+ or CD8^+ T cells, which were isolated from splenocytes of OT II and OT I transgenic mice, respectively. […] Additionally, we investigated how the priming of T cells elicited by the tested compounds impacted the cytokine profiles secreted in BMDC/T-cell cocultures.
Following 72 h of coincubation with BMDCs (pretreated with desmuramylpeptides [10 μM] and washed), supernatants from CD4^+ and CD8^+ T cells were harvested as previously described. […] Standard curves were constructed using recombinant cytokines provided in the kit. Data analysis was conducted using FlowJo (Tree Star, Inc., Ashland, OR, USA) and Prism (GraphPad, San Diego, CA, USA) software. Each experiment was performed in duplicate and replicated in two independent biological runs.

Row | solubility kinetic [2] | diminished solubility compared to parent compound 1 ([2]; kinetic solubility) | Compound | levels of LPS-induced IL-10 (human PBMCs; 2 μM + LPS 10 ng/mL) | production of IL-12p70 and TNF-α compared to MDP (human PBMCs; 2 μM + LPS 10 ng/mL) | capacity to induce IP-10 and IFN-γ secretion (human PBMCs; 2 μM + LPS 10 ng/mL, versus MDP) | production of proinflammatory cytokines and chemokines including IL-6, IL-8 and MCP-1 (human PBMCs; 2 μM alone (no LPS)) | levels of nonclassical monocytes [1] | production of MCP-1 and IFN-γ compared to the MDP/LPS combination (human PBMCs; 2 μM + LPS 10 ng/mL) | secretion of IL-1β, IL-10 and TGFβ compared to the MDP/LPS combination (human PBMCs; 2 μM + LPS 10 ng/mL) | levels of IL-6 and TNF-α secreted by CD4+ T cells (BMDC/T-cell cocultures) | stimulating IL-2 and IL-9 production (BMDC/T-cell cocultures; CD4+ T cell coculture, 72 h) | production of the Th9-associated cytokine IL-9 (BMDC/T-cell cocultures; CD4+ T cell coculture, 72 h)
1 | – | – | CCOC(=O)CC[C@@H](NC(=O)[C@@H](NC(=O)CNC(=O)/C=C/c1ccc(OC(=O)CO[C@H]2CC[C@@]3(C)C(=CC[C@H]4[C@@H]5CC[C@H]([C@H](C)CCCC(C)C)[C@@]5(C)CC[C@@H]43)C2)c(OC)c1)C(C)C)C(=O)OCC [Compound 26, Diethyl ((E)-3-(4-(2-(((8S,9S,10R,13R,14S,17R)-10,13-Dimethyl-17-((R)-6-methylheptan-2-yl)-2,3,4,7,8,9,10,11,12,13,14,15,16,17-tetradecahydro-1H-cyclopenta[a]phenanthren-3-yl)oxy)acetoxy)-3-methoxyphenyl)acryloyl)glycyl-L-valyl-D-glutamate] | amplified | higher production | comparable to MDP | smaller increases | 44.8% | – | – | – | – | –
2 | 178 µM (≈ 108 µg/mL) | – | CCCC(=O)Oc1ccc(/C=C/C(=O)NCC(=O)N[C@H](C(=O)N[C@H](CCC(=O)OCC)C(=O)OCC)C(C)C)cc1OC [Compound 3, Diethyl ((E)-3-(4-(Butyryloxy)-3-methoxyphenyl)acryloyl)glycyl-L-valyl-D-glutamate] | amplified | – | – | – | 31.9% | significantly diminished production | increased secretion | slightly increased | most notable | –
3 | 105 µM (≈ 86.1 µg/mL) | 4 factor | CC/C=C\C/C=C\C/C=C\C/C=C\C/C=C\CCCC(=O)Oc1ccc(/C=C/C(=O)NCC(=O)N[C@H](C(=O)N[C@H](CCC(=O)OCC)C(=O)OCC)C(C)C)cc1OC [Compound 23, Diethyl ((E)-3-(4-(((5Z,8Z,11Z,14Z,17Z)-Icosa-5,8,11,14,17-pentaenoyl)oxy)-3-methoxyphenyl)acryloyl)glycyl-L-valyl-D-glutamate] | amplified | – | – | – | 31.0% | significantly diminished production | increased secretion | slightly increased | most notable | augmented
